From patent publication US20240246956A1, “CLASS IIA HISTONE DEACETYLASE (HDAC) DEGRADER LIGANDS AND METHODS OF USE THEREOF” (DANA-FARBER CANCER INSTITUTE, INC., priority 2021, published 2024)

Key:
HDAC5 = HDAC5 (Homo sapiens, UniProt Q9UQL6); assay: In vitro HDAC enzymatic assay (Reaction Biology); assay type: biochemical; set-up: purchased Reaction Biology (Devault, PA); conditions: dose response, FIG. 2A-2B
Description: (§1) The in vitro HDAC enzymatic assays were performed by Reaction Biology (Devault, PA).

HDAC7 [1] = molecular target: T1, HDAC7 (Homo sapiens, UniProt Q8WUI4); assay: Global quantitative proteomics, change in protein abundance in Kelly cells; assay type: cell-based; set-up: endogenous in cells; host or cells: Kelly cells; conditions: 1 μM, 5-hour treatment, vs DMSO, FIG. 3
T1 sequence (Q8WUI4 1-952): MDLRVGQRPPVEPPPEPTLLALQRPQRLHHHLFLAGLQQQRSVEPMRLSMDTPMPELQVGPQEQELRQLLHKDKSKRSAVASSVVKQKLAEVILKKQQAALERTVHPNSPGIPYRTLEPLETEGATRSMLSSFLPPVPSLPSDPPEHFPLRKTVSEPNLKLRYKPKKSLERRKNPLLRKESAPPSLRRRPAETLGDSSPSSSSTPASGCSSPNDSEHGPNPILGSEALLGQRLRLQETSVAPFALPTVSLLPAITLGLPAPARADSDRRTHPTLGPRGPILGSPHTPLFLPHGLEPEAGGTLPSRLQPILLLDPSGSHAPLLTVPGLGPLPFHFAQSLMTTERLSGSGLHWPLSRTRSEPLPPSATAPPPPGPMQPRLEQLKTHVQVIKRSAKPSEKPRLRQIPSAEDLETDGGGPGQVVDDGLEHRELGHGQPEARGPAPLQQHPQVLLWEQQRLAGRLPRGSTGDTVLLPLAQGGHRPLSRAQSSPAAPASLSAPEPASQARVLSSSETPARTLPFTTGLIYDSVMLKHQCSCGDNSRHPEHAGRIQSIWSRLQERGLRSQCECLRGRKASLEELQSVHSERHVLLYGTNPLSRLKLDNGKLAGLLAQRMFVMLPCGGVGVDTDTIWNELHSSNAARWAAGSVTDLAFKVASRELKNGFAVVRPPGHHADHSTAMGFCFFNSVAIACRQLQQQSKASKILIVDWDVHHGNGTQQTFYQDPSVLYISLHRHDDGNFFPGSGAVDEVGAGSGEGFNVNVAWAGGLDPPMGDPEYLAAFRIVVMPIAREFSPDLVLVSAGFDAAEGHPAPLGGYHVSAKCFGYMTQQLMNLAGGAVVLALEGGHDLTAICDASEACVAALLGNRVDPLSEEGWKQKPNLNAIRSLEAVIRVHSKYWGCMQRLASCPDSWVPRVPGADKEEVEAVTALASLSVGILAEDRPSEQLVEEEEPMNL
Description: Cells were washed once with phosphate-buffered saline (PBS), harvested with CellstripperTM (Corning®), washed two additional times with PBS and snap frozen in liquid nitrogen. […] Proteins were precipitated using methanol/chloroform in Donovan et al., Elife 7:e38430 (2018). The precipitated protein was resuspended in 4 M Urea, 50 mM HEPES pH 7.4, followed by dilution to 1 M urea with the addition of 200 mM EPPS, pH 8. Proteins were first digested with LysC (1:50: enzyme:protein) for 12 hours at room temperature. The LysC digestion was diluted to 0.5 M Urea with 200 mM EPPS pH 8 followed by digestion with trypsin (1:50: enzyme:protein) for 6 hours at 37° C. Tandem mass tag (TMT) reagents (Thermo Fisher Scientific) were dissolved in anhydrous acetonitrile (ACN) according to manufacturer's instructions. Anhydrous ACN was added to each peptide sample to a final concentration of 30% v/v, and labeling was induced with the addition of TMT reagent to each sample at a ratio of 1:4 peptide:TMT label. The 11-plex labeling reactions were performed for 1.5 hours at room temperature and the reaction quenched by the addition of hydroxylamine to a final concentration of 0.3% for 15 minutes at room temperature. The sample channels were combined at a 1:1 ratio, desalted using C18 solid phase extraction cartridges (Waters®) and analyzed by LC-MS for channel ratio comparison. Samples were then combined using the adjusted volumes determined in the channel ratio analysis and dried down in a speed vacuum. The combined sample was then resuspended in 1% formic acid, and acidified (pH 2-3) before being subjected to desalting with C18 SPE (Sep-Pak®-, Waters®). […] The 96 resulting fractions were then pooled in a non-contiguous manner into 24 fractions and these fractions were used for subsequent mass spectrometry analysis. Data were collected using an Orbitrap FusionTM LumosTM mass spectrometer (Thermo Fisher Scientific, San Jose, CA, USA) coupled with a […] pump (Thermo Fisher Scientific). Peptides were separated on an EasySprayTM ES803.rev2 75 μm inner diameter microcapillary column (ThermoFisher Scientific). Peptides were separated using a 190 min gradient of 6-27% acetonitrile in 1.0% formic acid with a flow rate of 300 nL/min. Each analysis used an MS3-based TMT method as described in McAlister et al., Anal. Chem. 86(14):7150-7158 (2014). The data were acquired using a mass range of m/z 340-1350, resolution 120,000, automatic gain control (AGC) target 1×10^6, maximum injection time 100 ms, dynamic exclusion of 120 seconds for the peptide measurements in the Orbitrap FusionTM LumosTM mass spectrometer. Data dependent MS2 spectra were acquired in the ion trap with a normalized collision energy (NCE) set at 55%, AGC target set to 1.5×10^5 and a maximum injection time of 150 ms. MS3 scans were acquired in the Orbitrap FusionTM LumosTM mass spectrometer with a higher energy collision dissociation (HCD) set to 55%, AGC target set to 1.5×10^5, maximum injection time of 150 ms, resolution at 50,000 and with a maximum synchronous precursor selection (SPS) precursors set to 10. Proteome Discoverer 2.2 (Thermo Fisher Scientific) was used for .RAW file processing and controlling peptide and protein level false discovery rates, assembling proteins from peptides, and protein quantification from peptides. MS/MS spectra were searched against a Swissprot human database (December 2016) with both the forward and reverse sequences. […] TMT reporter ion intensities were measured using a 0.003 Da window around the theoretical m/z for each reporter ion in the MS3 scan. […] Reporter ion intensities were normalized and scaled using in-house scripts in the R framework. Statistical analysis was carried out using the limma package within the R framework as described in Ritchie et al., Nucleic Acids Res. 43(7):e47 (2015).

HDAC7 [2] = molecular target: T1, HDAC7; assay: In vitro HDAC enzymatic assay (Reaction Biology); assay type: biochemical; set-up: purchased Reaction Biology (Devault, PA); conditions: dose response, FIG. 2A-2B
Description: as §1

HDAC9 = molecular target: T2, HDAC9 (Homo sapiens, UniProt Q9UKV0); assay: In vitro HDAC enzymatic assay (Reaction Biology); assay type: biochemical; conditions: dose response, FIG. 2A-2B
T2 construct: purchased Reaction Biology (Devault, PA)
T2 sequence (Q9UKV0 whole entry): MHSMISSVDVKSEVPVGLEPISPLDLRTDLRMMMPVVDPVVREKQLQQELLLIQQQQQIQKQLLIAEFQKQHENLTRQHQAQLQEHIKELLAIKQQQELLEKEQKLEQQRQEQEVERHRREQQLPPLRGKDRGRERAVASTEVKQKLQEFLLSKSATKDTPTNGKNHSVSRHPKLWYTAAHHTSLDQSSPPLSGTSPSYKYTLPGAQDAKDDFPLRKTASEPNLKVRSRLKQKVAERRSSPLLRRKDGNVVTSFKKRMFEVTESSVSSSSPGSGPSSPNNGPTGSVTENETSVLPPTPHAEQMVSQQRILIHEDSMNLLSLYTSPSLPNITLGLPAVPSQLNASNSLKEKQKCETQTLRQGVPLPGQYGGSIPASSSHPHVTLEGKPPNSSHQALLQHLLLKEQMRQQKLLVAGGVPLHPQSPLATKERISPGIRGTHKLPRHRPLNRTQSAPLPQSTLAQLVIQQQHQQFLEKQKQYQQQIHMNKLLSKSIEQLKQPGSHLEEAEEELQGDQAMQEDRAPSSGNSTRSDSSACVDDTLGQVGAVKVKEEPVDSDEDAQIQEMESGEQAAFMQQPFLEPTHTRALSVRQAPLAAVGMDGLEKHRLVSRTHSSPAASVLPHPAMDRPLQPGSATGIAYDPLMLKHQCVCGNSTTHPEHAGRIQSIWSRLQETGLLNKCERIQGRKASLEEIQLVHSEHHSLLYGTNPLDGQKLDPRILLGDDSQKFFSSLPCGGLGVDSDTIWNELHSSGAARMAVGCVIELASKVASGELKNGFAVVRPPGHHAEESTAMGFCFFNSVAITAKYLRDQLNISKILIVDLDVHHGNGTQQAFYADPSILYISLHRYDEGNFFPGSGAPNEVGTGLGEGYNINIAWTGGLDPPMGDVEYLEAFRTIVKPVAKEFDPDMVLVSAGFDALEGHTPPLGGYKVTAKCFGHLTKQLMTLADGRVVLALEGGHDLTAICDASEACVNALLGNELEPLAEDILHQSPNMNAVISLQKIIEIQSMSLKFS
Description: as §1

Sequence of HDAC5 (Q9UQL6 whole entry): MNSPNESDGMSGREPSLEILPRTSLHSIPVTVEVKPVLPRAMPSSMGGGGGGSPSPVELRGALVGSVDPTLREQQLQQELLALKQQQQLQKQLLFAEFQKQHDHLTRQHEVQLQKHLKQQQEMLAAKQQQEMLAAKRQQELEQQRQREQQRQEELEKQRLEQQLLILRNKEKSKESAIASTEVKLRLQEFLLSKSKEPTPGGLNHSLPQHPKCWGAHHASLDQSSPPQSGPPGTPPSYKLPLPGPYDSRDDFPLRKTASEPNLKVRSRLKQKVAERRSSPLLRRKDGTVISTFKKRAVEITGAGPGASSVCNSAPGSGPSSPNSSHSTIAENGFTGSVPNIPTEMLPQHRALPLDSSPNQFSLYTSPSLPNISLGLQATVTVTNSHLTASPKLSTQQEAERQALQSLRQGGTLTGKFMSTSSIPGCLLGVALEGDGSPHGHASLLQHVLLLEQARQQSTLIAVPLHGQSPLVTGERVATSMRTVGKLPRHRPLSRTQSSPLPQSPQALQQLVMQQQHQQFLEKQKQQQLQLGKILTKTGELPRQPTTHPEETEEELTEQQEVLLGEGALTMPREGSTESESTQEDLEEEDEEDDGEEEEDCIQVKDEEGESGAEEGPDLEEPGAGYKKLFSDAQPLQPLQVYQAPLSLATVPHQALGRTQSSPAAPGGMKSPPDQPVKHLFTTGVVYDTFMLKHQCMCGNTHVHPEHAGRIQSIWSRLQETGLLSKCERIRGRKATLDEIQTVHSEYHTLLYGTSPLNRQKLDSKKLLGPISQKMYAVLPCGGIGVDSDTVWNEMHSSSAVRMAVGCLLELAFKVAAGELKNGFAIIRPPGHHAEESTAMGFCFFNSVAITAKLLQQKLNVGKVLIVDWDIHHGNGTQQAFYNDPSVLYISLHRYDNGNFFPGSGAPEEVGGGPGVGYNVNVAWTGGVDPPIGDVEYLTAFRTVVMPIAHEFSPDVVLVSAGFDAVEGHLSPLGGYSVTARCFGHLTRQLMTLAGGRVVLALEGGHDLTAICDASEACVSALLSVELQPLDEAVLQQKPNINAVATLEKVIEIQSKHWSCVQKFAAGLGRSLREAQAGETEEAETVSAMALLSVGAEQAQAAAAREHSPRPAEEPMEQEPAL

Row | Compound | inhibition of HDAC5 (HDAC5) | protein expression level of HDAC7 (HDAC7 [1]) | inhibition of HDAC7 (HDAC7 [2]) | inhibition of HDAC9 (HDAC9)
1 | O=C1CCC(N2C(=O)c3cccc(NCCCCCCN4CCC(CNC(=O)c5cccc(-c6noc(C(F)(F)F)n6)c5)(c5nc(-c6ccccc6)cs5)CC4)c3C2=O)C(=O)N1 (centres unmarked) [Compound 1] | inhibited | selective reduction in protein expression level | inhibited | inhibited
2 | CCN(CCNc1cccc2c1C(=O)N(C1CCC(=O)NC1=O)C2=O)C[C@@H](C)NC(=O)c1ccc(-c2noc(C(F)(F)F)n2)cc1 (stereo partly drawn) [Compound 16, N-((2R)-1-((2-((2-(2,6-dioxopiperidin-3-yl)-1,3-dioxoisoindolin-4-yl)amino)ethyl)(ethyl)amino)propan-2-yl)-4-(5-(trifluoromethyl)-1,2,4-oxadiazol-3-yl)benzamide] | inhibited | reduction in protein expression level | inhibited | inhibited
